Results on 29 molecules are retold here after patent US20150225369A1, “DDR2 INHIBITORS FOR THE TREATMENT OF OSTEOARTHRITIS” (Merck Patent GmbH, priority 2012, published 2015).

This assay deals with T1, His-tagged human recombinant DDR-2 kinase domain (His-TEV-DDR2 467-855 aa) (Homo sapiens, UniProt Q16832).
T1 construct: His-TEV-DDR2 467-855 aa
T1 sequence (Q16832 467-855): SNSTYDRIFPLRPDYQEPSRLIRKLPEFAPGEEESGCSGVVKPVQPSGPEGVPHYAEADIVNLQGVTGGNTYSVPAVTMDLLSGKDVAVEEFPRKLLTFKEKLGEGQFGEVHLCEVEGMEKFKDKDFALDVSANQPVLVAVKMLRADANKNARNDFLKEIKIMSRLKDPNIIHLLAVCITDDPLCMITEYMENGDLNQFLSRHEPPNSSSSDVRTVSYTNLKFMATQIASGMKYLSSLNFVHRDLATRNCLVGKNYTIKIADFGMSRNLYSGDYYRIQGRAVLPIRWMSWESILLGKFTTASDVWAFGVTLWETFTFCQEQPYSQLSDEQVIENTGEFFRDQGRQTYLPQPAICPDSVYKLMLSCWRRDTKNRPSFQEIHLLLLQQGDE
Kind of assay: Autophosphorylation assay for biochemical activity testing of DDR2 (HTRF). The note with it: biochemical DDR2 autophosphorylation. Here is the method:
The autophosphorylation assay was run in two steps: the enzymatic reaction in which His-tagged DDR2 with ATP as co-substrate phosphorylates itself and the detection reaction where a time resolved FRET between XL665® labelled anti-6His antibody bound to the His-tag of the enzyme and cryptate labelled anti-phospho-Tyrosine-antibody (PT66) bound the phosphorylated Tyrosine residue of DDR2 was analysed. The autophosphorylation activity was detectable directly via the increase in HTRF signal.
The autophosphorylation assay was performed as 1536 well or 384 well HTRF® (Cisbio, Codolet, France) assay format in Greiner low volume medium binding 384-well microtiter plates and was used for high throughput screen. […] The ratio of the emission signals was determined. The full value used was the inhibitor-free reaction.
Regarding `CNC(=O)c1cc(Oc2ccc(CNC(=O)Nc3cc(C(F)(F)F)ccc3OCCN(C)C)cc2)ccn1` [compound 77, 4-(4-{3-[2-(2-Dimethylamino-ethoxy)-5-trifluoromethyl-phenyl]-ureidomethyl}-phenoxy)-pyridine-2-carboxylic acid methylamide], the half-inhibitory concentration (IC50) worked out at 0.078 µM.
With `CNC(=O)c1cc(Oc2ccc(CNC(=O)Nc3ccc(Cl)cc3OC)cc2)ccn1` [compound 79, 4-{4-[3-(4-Chloro-2-methoxy-phenyl)-ureidomethyl]-phenoxy}-pyridine-2-carboxylic acid methylamide], the IC50 was 0.41 µM.
The result for `CNC(=O)c1cc(Oc2ccc(CNC(=O)Nc3cc(OC)c([N+](=O)[O-])cc3OC)cc2)ccn1` [compound 81, 4-{4-[3-(2,5-Dimethoxy-4-nitro-phenyl)-ureidomethyl]-phenoxy}-pyridine-2-carboxylic acid methylamide] reads 0.23 µM; that for `CNC(=O)c1cc(Oc2ccc(CNC(=O)Nc3ccc(C(=O)OC)cc3OC)cc2)ccn1` [compound 82, 3-Methoxy-4-{3-[4-(2-methylcarbamoyl-pyridin-4-yloxy)-benzyl]-ureido}-benzoic acid methyl ester], 2.9 µM.
The result for `CNC(=O)c1cc(Oc2ccc(CNC(=O)Nc3ccccn3)cc2)ccn1` [compound 85, 4-{4-[(3-Pyridin-2-yl-ureido)-methyl]-phenoxy}-pyridine-2-carboxylic acid methylamide] reads 3.8 µM; that for `CNC(=O)c1cc(Oc2ccc(CNC(=O)Nc3ccccc3OCCCN(C)C)cc2)ccn1` [compound 86, 4-(4-{3-[2-(3-Dimethylamino-propoxy)-phenyl]-ureidomethyl}-phenoxy)-pyridine-2-carboxylic acid methylamide], 1.2 µM; that for `CNC(=O)c1cc(Oc2ccc(CNC(=O)Nc3cccnc3OC)cc2)ccn1` [compound 87, 4-{4-[3-(2-Methoxy-pyridin-3-yl)-ureidomethyl]-phenoxy}-pyridine-2-carboxylic acid methylamide], 1.6 µM.
The result for `CNC(=O)c1cc(Oc2ccc(CNC(=O)Nc3cccnc3)cc2)ccn1` [compound 88, 4-{4-[(3-Pyridin-3-yl-ureido)-methyl]-phenoxy}-pyridine-2-carboxylic acid methylamide] reads 15 µM; that for `CNC(=O)c1cc(Oc2ccc(CNC(=O)Nc3ccncc3)cc2)ccn1` [compound 90, 4-{4-[(3-Pyridin-4-yl-ureido)-methyl]-phenoxy}-pyridine-2-carboxylic acid methylamide], not below 100 µM; that for `CNC(=O)c1cc(Oc2ccc(CNC(=O)Nc3ncc(C(F)(F)F)cc3Cl)cc2)ccn1` [compound 91, 4-{4-[3-(3-Chloro-5-trifluoromethyl-pyridin-2-yl)-ureidomethyl]-phenoxy}-pyridine-2-carboxylic acid methylamide], 6.6 µM.
As for `CNC(=O)c1cc(Oc2ccc(CNC(=O)Nc3cc(C(F)(F)F)ccc3OCC(=O)OC)cc2)ccn1` [compound 92, (2-{3-[4-(2-Methylcarbamoyl-pyridin-4-yloxy)-benzyl]-ureido}-4-trifluoromethyl-phenoxy)-acetic acid methyl ester], the concentration for half-maximal inhibition (IC50) worked out at 0.038 µM.
For the molecule `CNC(=O)c1cc(Oc2ccc(CNC(=O)Nc3cc(Cl)cnc3Cl)cc2)ccn1` [compound 93, 4-{4-[3-(2,5-Dichloro-pyridin-3-yl)-ureidomethyl]-phenoxy}-pyridine-2-carboxylic acid methylamide], the IC50 stood at 0.042 µM.
For `CNC(=O)c1cc(Oc2ccc(CNC(=O)Nc3cc(C(F)(F)F)ccc3OCC(=O)O)cc2)ccn1` [compound 94, (2-{3-[4-(2-Methylcarbamoyl-pyridin-4-yloxy)-benzyl]-ureido}-4-trifluoromethyl-phenoxy)-acetic acid], the IC50 is 1.6 µM.
The result for `CNC(=O)c1cc(Oc2ccc(CNC(=O)Nc3cc(C(F)(F)F)c(Cl)cc3OCCN(C)C)cc2)ccn1` [compound 95, 4-(4-{3-[4-Chloro-2-(2-dimethylamino-ethoxy)-5-trifluoromethyl-phenyl]-ureidomethyl}-phenoxy)-pyridine-2-carboxylic acid methylamide] reads 0.081 µM; that for `CNC(=O)c1cc(Oc2ccc(CNC(=O)Nc3cc4ccccc4cn3)cc2)ccn1` [compound 96, 4-{4-[(3-Isoquinolin-3-yl-ureido)-methyl]-phenoxy}-pyridine-2-carboxylic acid methylamide], 0.17 µM; that for `CNC(=O)c1cc(Oc2ccc(CNC(=O)Nc3cnc4ccccc4c3)cc2)ccn1` [compound 97, 4-{4-[(3-Quinolin-3-yl-ureido)-methyl]-phenoxy}-pyridine-2-carboxylic acid methylamide], 0.29 µM.
The result for `CNC(=O)c1cc(Oc2ccc(CNC(=O)Nc3cc(C(F)(F)F)c(Cl)cc3OCC(=O)O)cc2)ccn1` [compound 98, (5-Chloro-2-{3-[4-(2-methylcarbamoyl-pyridin-4-yloxy)-benzyl]-ureido}-4-trifluoromethyl-phenoxy)-acetic acid] reads 3.3 µM.
The result for `CNC(=O)c1cc(Oc2ccc(CNC(=O)Nc3cc4ccccc4nc3OC)cc2)ccn1` [compound 101, 4-{4-[3-(2-Methoxy-quinolin-3-yl)-ureidomethyl]-phenoxy}-pyridine-2-carboxylic acid methylamide] reads 0.19 µM; that for `CNC(=O)c1cc(Oc2ccc(CNC(=O)Nc3cc(C(F)(F)F)ccc3OC)cc2C)ccn1` [compound 102, 4-{4-[3-(2-Methoxy-5-trifluoromethyl-phenyl)-ureidomethyl]-2-methyl-phenoxy}-pyridine-2-carboxylic acid methylamide], 0.05 µM; that for `CNC(=O)c1cc(Oc2ccc(CNC(=O)Nc3cc(Cl)ccc3OC)c(C)c2)ccn1` [compound 104, 4-{4-[3-(5-Chloro-2-methoxy-phenyl)-ureidomethyl]-3-methyl-phenoxy}-pyridine-2-carboxylic acid methylamide], 0.27 µM.
For the molecule `CNC(=O)c1cc(Oc2ccc(CNC(=O)Nc3cc(C(F)(F)F)ccc3OC)c(C)c2)ccn1` [compound 105, 4-{4-[3-(2-Methoxy-5-trifluoromethyl-phenyl)-ureidomethyl]-3-methyl-phenoxy}-pyridine-2-carboxylic acid methylamide], the 50% inhibitory concentration (IC50) is 0.18 µM.
The same measure for `CNC(=O)c1cc(Oc2ccc(CNC(=O)Nc3cc(C(F)(F)F)ccc3OCCN3CCCC3)cc2)ccn1` [compound 106, 4-(4-{3-[2-(2-Pyrrolidin-1-yl-ethoxy)-5-trifluoromethyl-phenyl]-ureidomethyl}-phenoxy)-pyridine-2-carboxylic acid methylamide]: 0.14 µM.
For `CNC(=O)c1cc(Oc2ccc(CNC(=O)Nc3cc(C(F)(F)F)c(Cl)cc3OCC(=O)OC(C)(C)C)cc2)ccn1` [compound 107, (5-Chloro-2-{3-[4-(2-methylcarbamoyl-pyridin-4-yloxy)-benzyl]-ureido}-4-trifluoromethyl-phenoxy)-acetic acid tert-butyl ester], the IC50 came out at 0.022 µM.
The same measure for `CCN(CC)CCOc1ccc(C(F)(F)F)cc1NC(=O)NCc1ccc(Oc2ccnc(C(=O)NC)c2)cc1` [compound 108, 4-(4-{3-[2-(2-Diethylamino-ethoxy)-5-trifluoromethyl-phenyl]-ureidomethyl}-phenoxy)-pyridine-2-carboxylic acid methylamide]: 0.03 µM; for `CNC(=O)c1cc(Oc2ccc(CNC(=O)Nc3cc(C(F)(F)F)ccc3OCCN3CCOCC3)cc2)ccn1` [compound 109, 4-(4-{3-[2-(2-Morpholin-4-yl-ethoxy)-5-trifluoromethyl-phenyl]-ureidomethyl}-phenoxy)-pyridine-2-carboxylic acid methylamide]: 0.072 µM; for `CNC(=O)c1cc(Oc2ccc(CNC(=O)Nc3cc(C(F)(F)F)c(Cl)cc3OCC(=O)OC)cc2)ccn1` [compound 113, (5-Chloro-2-{3-[4-(2-methylcarbamoyl-pyridin-4-yloxy)-benzyl]-ureido}-4-trifluoromethyl-phenoxy)-acetic acid methyl ester]: 0.057 µM.
`CNC(=O)c1cc(Oc2ccc(CNC(=O)Nc3cc(C(F)(F)F)c(Cl)cc3OCC(=O)OC(C)C)cc2)ccn1` [compound 114, (5-Chloro-2-{3-[4-(2-methylcarbamoyl-pyridin-4-yloxy)-benzyl]-ureido}-4-trifluoromethyl-phenoxy)-acetic acid isopropyl ester]: the IC50 was 0.024 µM.
The result for `CNC(=O)c1cc(Oc2ccc(CNC(=O)Nc3cc(C(F)(F)F)ccc3OC3CCNCC3)cc2)ccn1` [compound 115, 4-(4-{3-[2-(Piperidin-4-yloxy)-5-trifluoromethyl-phenyl]-ureidomethyl}-phenoxy)-pyridine-2-carboxylic acid methylamide] reads 0.02 µM; that for `CNC(=O)c1cc(Oc2ccc(CNC(=O)Nc3cc(C)c(Cl)cc3OCCN3CCCC3)cc2)ccn1` [compound 116, 4-(4-{3-[4-Chloro-5-methyl-2-(2-pyrrolidin-1-yl-ethoxy)-phenyl]-ureidomethyl}-phenoxy)-pyridine-2-carboxylic acid methylamide], 0.41 µM.
